Reference: US10738127B2, “Monoclonal antibodies prevent cell surface protein shedding and block tumor growth” (VERITAS BIOTECNOLOGIA LTDA, priority 2016, dated 2020)

Experiments:
[1] = tested on: E-cadherin linker segment; assay: Titration of immunized mice sera against the E-cadherin linker segment peptides (FIG. 6); assay type: binding; details: immunization of mice
Excerpt: Polyclonal antibodies against synthetic peptides pep_VLS02 (RKAQPVEAGLQIPAC; SEQ ID NO: 4) and pep_VLS03 (VEAGLQIPAC; SEQ ID NO: 3) were produced according to methods known in the art.

MMP-9 = MMP-9 (Homo sapiens, UniProt P14780); assay: MMP-9 enzymatic activity / E-cadherin cleavage assay; assay type: biochemical
Chain of MMP-9 (P14780 94-707, species assumed): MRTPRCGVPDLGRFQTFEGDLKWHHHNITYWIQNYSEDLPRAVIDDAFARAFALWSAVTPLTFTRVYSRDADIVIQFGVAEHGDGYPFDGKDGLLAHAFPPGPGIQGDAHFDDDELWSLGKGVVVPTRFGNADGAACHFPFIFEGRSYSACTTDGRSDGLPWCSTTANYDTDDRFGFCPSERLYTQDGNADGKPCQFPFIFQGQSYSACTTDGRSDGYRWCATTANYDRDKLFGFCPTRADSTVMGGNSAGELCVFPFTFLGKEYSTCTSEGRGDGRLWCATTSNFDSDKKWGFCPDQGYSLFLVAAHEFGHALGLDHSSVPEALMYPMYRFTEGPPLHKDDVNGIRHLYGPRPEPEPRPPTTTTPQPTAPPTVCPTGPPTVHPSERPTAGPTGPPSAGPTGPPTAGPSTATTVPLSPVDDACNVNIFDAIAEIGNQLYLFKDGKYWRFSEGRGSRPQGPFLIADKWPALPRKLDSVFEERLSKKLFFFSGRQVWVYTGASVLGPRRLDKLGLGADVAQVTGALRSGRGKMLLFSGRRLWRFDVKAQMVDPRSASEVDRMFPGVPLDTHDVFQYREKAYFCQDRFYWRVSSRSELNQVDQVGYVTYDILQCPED
Method: The synthetic peptide pep_VLS02 was used as a competitive inhibitor of MMP-9. The MMP-9 enzymatic activity is reduced in the presence of synthetic peptide (FIG. 10). The inhibitory effect of pep_VLS02 against cleavage of E-cadherin opens a new window for the development of new inhibitors.
On the other hand, when the polyclonal antibody pAb_VLS02 is added to the assay, in the presence of its corresponding peptide, the MMP-9 activity was reestablished (FIG. 10). Thus, pep_VLS02 and its correspondent polyclonal antibody modulate MMP-9 activity and inhibit the E-cadherin cleavage.

E-cadherin cleavage by a metalloprotease (MMP-9; FIG. 10)	MMP-9 enzymatic activity (MMP-9; in the presence of synthetic peptide as competitive inhibitor)	Sequence	immunogenic capacity [1]
inhibit E-cadherin cleavage	reduced	RKAQPVEAGLQIPAC [pep_VLS02, synthetic antigenic peptide covering the cleavage site of E-cadherin plus a cysteine residue at the end]	confirmed the immunogenic capacity
		VEAGLQIPAC [pep_VLS03, synthetic antigenic peptide of the E-cadherin linker segment plus a cysteine residue]	confirmed the immunogenic capacity
